Earlier results on 1 substance are cited in publication PMC4022290 (Nuclear medicine and biology, 2013).

The data set concerns tumors.

With “D-Phe-Gln-Trp-Ala-Val-Gly-His-Sta-Leu-NH2 [RM2]”, the “uptake and retention in tumors vs agonist GRPr-targeting ligands” value was “improved uptake and retention in tumors as compared to agonist GRPr-targeting ligands”.
